Measurements reported in US20090054493A1, “THIAZOLE DERIVATIVES AS PPAR DELTA LIGANDS AND THEIR MANUFACTURING PROCESS” (priority 2005, published 2009).

How the values were obtained:
Type in all cases: cell-based
[1] = biological target: T1, PPARγ (Homo sapiens, UniProt P37231); experiment: Transfection assay (luciferase reporter) in CV-1 cells, PPARγ; conditions: full-length PPAR plasmid, luciferase normalized with β-galactosidase
T1 construct: full-length PPARs plasmid DNA; expressed in transfected cells; host or cells: CV-1 cells
T1 sequence (P37231 1-505): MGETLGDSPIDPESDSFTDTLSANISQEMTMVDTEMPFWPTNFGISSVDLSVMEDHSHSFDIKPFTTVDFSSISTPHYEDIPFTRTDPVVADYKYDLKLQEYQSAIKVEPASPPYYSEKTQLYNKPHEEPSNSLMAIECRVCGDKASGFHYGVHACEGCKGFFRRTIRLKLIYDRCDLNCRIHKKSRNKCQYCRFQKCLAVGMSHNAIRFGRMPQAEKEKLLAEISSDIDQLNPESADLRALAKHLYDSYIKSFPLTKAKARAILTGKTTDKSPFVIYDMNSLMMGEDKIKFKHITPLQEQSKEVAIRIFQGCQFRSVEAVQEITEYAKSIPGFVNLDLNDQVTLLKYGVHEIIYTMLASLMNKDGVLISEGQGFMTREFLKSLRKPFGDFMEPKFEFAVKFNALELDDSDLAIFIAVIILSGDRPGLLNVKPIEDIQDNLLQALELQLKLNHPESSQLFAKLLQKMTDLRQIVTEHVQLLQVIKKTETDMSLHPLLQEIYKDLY
Procedure: (§1) The compounds prepared in Examples were tested for PPARδ activity by a transfection assay. In addition, the compounds were tested for selectivity for PPARα and PPARγ, the subtypes of PPARs, and also tested for toxicity by a MTT assay.
(§2) A transfection assay was performed using CV-1 cells. The culture of the cells was performed using a DMEM medium (10% FBS, DBS (delipidated) and 1% penicillin/streptomycin) on a 96-well plate in a 5% carbon dioxide-containing incubator at 37° C. […] Specifically, CV-1 cells were inoculated onto a 96-well plate at a concentration of 5,000 cells/well, and after 24 hours, the cells were transfected. In the cell transfection, full-length PPARs plasmid DNA, reporter DNA that has luciferase activity and thus allows the identification of PPARs, and β-galactosidase DNA that provides the information of transfection efficiency, were used as transfection reagents. Each of the compounds developed in the present invention was dissolved in dimethylsulfoxide (DMSO) and transfected into the cells at various concentrations using media. The cells were cultured in an incubator for 24 and then lysed with lysis buffer. The lysed cells were measured for luciferase and β-galactosidase activities using a luminometer and a microplate reader. The measured luciferase values were normalized with the β-galactosidase values and graphed. From the graph, EC50 values were determined.

[2] = MTT assay, cytotoxicity; conditions: African green monkey, CV-1 cells, read-out: LC50 Cytotoxicity
Procedure: The compounds of Examples 47-97 according to the present invention were tested for cytotoxicity using a MTT assay. MTT is a water-soluble yellow substance, but if it is introduced into living cells, it will be degenerated into a water-insoluble purple crystal due to dehydrogenase contained in mitochondria. If this substance is dissolved in dimethylsulfoxide and then measured for absorbance at 550 nm, cytotoxicity can be assayed. The test method is as follows.
CV-1 cells were first inoculated onto a 96-well plate at a concentration of 5,000 cells/well. The inoculated cells were cultured in a 5% carbon dioxide-containing humidified incubator at 37° C. for 24 hours, and then treated with the inventive compounds at various concentrations. After 24 hours of culture, a MTT reagent was added to the cultured cells. After 15 minutes of culture, the resulting purple crystal was dissolved in dimethylsulfoxide and then measured for absorbance using a microplate reader. From the measured absorbance, cytotoxicity was assayed.

[3] = biological target: T2, PPARδ (Homo sapiens, UniProt Q03181); experiment: Transfection assay (luciferase reporter) in CV-1 cells, PPARδ; set-up: full-length PPARs plasmid DNA; expressed in transfected cells; host or cells: CV-1 cells; conditions: full-length PPAR plasmid, luciferase normalized with β-galactosidase
T2 sequence (Q03181 1-441): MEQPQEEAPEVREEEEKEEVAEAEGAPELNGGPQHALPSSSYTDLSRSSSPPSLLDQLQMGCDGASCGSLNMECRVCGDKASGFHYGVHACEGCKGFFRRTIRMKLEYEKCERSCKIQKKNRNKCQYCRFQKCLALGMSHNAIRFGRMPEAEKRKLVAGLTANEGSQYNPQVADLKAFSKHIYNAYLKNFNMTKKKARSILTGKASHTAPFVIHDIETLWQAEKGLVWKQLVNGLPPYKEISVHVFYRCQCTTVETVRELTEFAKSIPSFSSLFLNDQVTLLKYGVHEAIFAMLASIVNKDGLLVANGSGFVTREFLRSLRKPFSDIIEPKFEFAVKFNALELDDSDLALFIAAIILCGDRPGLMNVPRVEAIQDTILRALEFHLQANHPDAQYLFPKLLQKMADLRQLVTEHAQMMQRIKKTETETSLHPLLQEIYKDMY
Procedure: as §1, §2

[4] = biological target: T3, PPARα (Homo sapiens, UniProt Q07869); experiment: Transfection assay (luciferase reporter) in CV-1 cells, PPARα; conditions: full-length PPAR plasmid, luciferase normalized with β-galactosidase
T3 construct: full-length PPARs plasmid DNA; expressed in transfected cells; host or cells: CV-1 cells
T3 sequence (Q07869 1-468): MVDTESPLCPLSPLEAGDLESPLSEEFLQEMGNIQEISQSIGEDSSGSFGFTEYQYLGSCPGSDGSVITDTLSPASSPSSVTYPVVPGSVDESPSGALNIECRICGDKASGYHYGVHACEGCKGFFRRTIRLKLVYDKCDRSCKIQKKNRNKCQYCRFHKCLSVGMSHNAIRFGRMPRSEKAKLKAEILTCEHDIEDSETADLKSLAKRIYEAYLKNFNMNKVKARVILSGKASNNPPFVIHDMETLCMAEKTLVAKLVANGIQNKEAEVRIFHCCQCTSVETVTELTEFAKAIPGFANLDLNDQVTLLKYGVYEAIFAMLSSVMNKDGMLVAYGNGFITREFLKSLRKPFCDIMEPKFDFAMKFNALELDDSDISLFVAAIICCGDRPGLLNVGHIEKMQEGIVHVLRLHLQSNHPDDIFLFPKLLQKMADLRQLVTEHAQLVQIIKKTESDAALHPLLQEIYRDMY
Procedure: as §1
A transfection assay was performed using CV-1 cells. The culture of the cells was performed using a DMEM medium (10% FBS, DBS (delipidated) and 1% penicillin/streptomycin) on a 96-well plate in a 5% carbon dioxide-containing incubator at 37° C. The test was performed in four steps consisting of cell inoculation, transfection, treatment of the compounds, and analysis of results. Specifically, CV-1 cells were inoculated onto a 96-well plate at a concentration of 5,000 cells/well, and after 24 hours, the cells were transfected. In the cell transfection, full-length PPARs plasmid DNA, reporter DNA that has luciferase activity and thus allows the identification of PPARs, and β-galactosidase DNA that provides the information of transfection efficiency, were used as transfection reagents. Each of the compounds developed in the present invention was dissolved in dimethylsulfoxide (DMSO) and transfected into the cells at various concentrations using media. The cells were cultured in an incubator for 24 and then lysed with lysis buffer. The lysed cells were measured for luciferase and β-galactosidase activities using a luminometer and a microplate reader. The measured luciferase values were normalized with the β-galactosidase values and graphed. From the graph, EC50 values were determined.

In the case of `Cc1cc(SC(Cc2ccc(F)cc2F)c2sc(-c3ccc(C(F)(F)F)cc3)nc2C)ccc1OCC(=O)O` (stereo not shown) [Example 85, 2-[4-[1-[2-[4-(trifluoromethyl)phenyl]-4-methylthiazol-5-yl]-2-(2,4-difluorophenyl)ethylthio]-2-methylphenoxy]acetic acid], the “EC50 PPARγ” value [1] is reported as “ia”, the CC50 at 24 h [2] is reported as > 100000 nM and the EC50 [3] is reported as 3.4 nM. For the same molecule, the “EC50 PPARα” value [4] was “ia”.

For `Cc1cc(SC(CCCCCc2ccccc2)c2sc(-c3ccc(C(F)(F)F)cc3)nc2C)ccc1OCC(=O)O` (stereo not shown) [Example 72, 2-[4-[1-[2-[4-(trifluoromethyl)phenyl]-4-methylthiazol-5-yl]-6-phenylhexylthio]-2-methylphenoxy]acetic acid], the “EC50 PPARγ” value [1] was “ia”, the CC50 at 24 h [2] was 92000 nM and the EC50 [3] was 11.5 nM. For the same molecule, the “EC50 PPARα” value [4] was “ia”.

In the case of `Cc1cc(SC(CCCCCCCc2ccccc2)c2sc(-c3ccc(C(F)(F)F)cc3)nc2C)ccc1OCC(=O)O` (stereo not shown) [Example 73, 2-[4-[1-[2-[4-(trifluoromethyl)phenyl]-4-methylthiazol-5-yl]-8-phenyloctylthio]-2-methylphenoxy]acetic acid], the “EC50 PPARγ” value [1] is reported as “ia”, the CC50 at 24 h [2] is reported as 94000 nM and the EC50 [3] is reported as 57.2 nM. For the same molecule, the “EC50 PPARα” value [4] was “ia”.

With `Cc1cc(SC(Cc2ccc(C(F)(F)F)cc2)c2sc(-c3ccc(C(F)(F)F)cc3)nc2C)ccc1OCC(=O)O` (stereo not shown) [Example 78, 2-[4-[2-[4-(trifluoromethyl)phenyl]-1-[2-[4-(trifluoromethyl)phenyl]-4-methylthiazol-5-yl]ethylthio]-2-methylphenoxy]acetic acid] the “EC50 PPARγ” value [1] was “ia”, the CC50 at 24 h [2] was > 100000 nM and the EC50 [3] was 13.3 nM. For the same molecule, the “EC50 PPARα” value [4] was “ia”.

For `Cc1cc(SC(Cc2c(F)cccc2F)c2sc(-c3ccc(C(F)(F)F)cc3)nc2C)ccc1OCC(=O)O` (stereo not shown) [Example 83, 2-[4-[1-[2-[4-(trifluoromethyl)phenyl]-4-methylthiazol-5-yl]-2-(2,6-difluorophenyl)ethylthio]-2-methylphenoxy]acetic acid], the EC50 [1] was > 10000 nM, the CC50 at 24 h [2] was > 100000 nM and the EC50 [3] was 2.6 nM. The EC50 [4] was > 100000 nM.

In the case of `Cc1cc(SC(Cc2cc(F)ccc2Cl)c2sc(-c3ccc(C(F)(F)F)cc3)nc2C)ccc1OCC(=O)O` (stereo not shown) [Example 86, 2-[4-[2-(2-chloro-5-fluorophenyl)-1-[2-[4-(trifluoromethyl)phenyl]-4-methylthiazol-5-yl]ethylthio]-2-methylphenoxy]acetic acid], the “EC50 PPARγ” value [1] is reported as “ia”, the CC50 at 24 h [2] is reported as > 100000 nM and the EC50 [3] is reported as 8.7 nM. The “EC50 PPARα” value [4] was “ia”.

In the case of `Cc1cc(SC(Cc2c(F)cccc2C(F)(F)F)c2sc(-c3ccc(C(F)(F)F)cc3)nc2C)ccc1OCC(=O)O` (stereo not shown) [Example 82, 2-[4-[2-[2-fluoro-6-(trifluoromethyl)phenyl]-1-[2-[4-(trifluoromethyl)phenyl]-4-methylthiazol-5-yl]ethylthio]-2-methylphenoxy]acetic acid], the CC50 at 24 h [2] is reported as > 100000 nM, the EC50 [3] is reported as 2.6 nM and the “EC50 PPARα” value [4] is reported as “ia”.

For `Cc1cc(SC(Cc2ccc(F)cc2F)c2sc(-c3ccc(C(F)(F)F)c(F)c3)nc2C)ccc1OCC(=O)O` (stereo not shown) [Example 96, 2-[4-[1-[2-[3-fluoro-4-(trifluoromethyl)phenyl]-4-methylthiazol-5-yl]-2-(2,4-difluorophenyl)ethylthio]-2-methylphenoxy]acetic acid], the “EC50 PPARγ” value [1] was “ia”, the CC50 at 24 h [2] was > 10000 nM and the EC50 [3] was 4.8 nM. The EC50 [4] was > 10000 nM.

For `Cc1cc(SC(Cc2c(F)cccc2F)c2sc(-c3ccc(C(F)(F)F)c(F)c3)nc2C)ccc1OCC(=O)O` (stereo not shown) [Example 94, 2-[4-[1-[2-[3-fluoro-4-(trifluoromethyl)phenyl]-4-methylthiazol-5-yl]-2-(2,6-difluorophenyl)ethylthio]-2-methylphenoxy]acetic acid], the “EC50 PPARγ” value [1] was “ia”, the CC50 at 24 h [2] was > 10000 nM and the EC50 [3] was 0.9 nM. For the same molecule, the “EC50 PPARα” value [4] was “ia”.

For `Cc1cc(SC(CCCCCCCCCCc2ccccc2)c2sc(-c3ccc(C(F)(F)F)cc3)nc2C)ccc1OCC(=O)O` (stereo not shown) [Example 74, 2-[4-[1-[2-[4-(trifluoromethyl)phenyl]-4-methylthiazol-5-yl]-11-phenylundecylthio]-2-methylphenoxy]acetic acid], the “EC50 PPARγ” value [1] was “ia”, the CC50 at 24 h [2] was > 100000 nM and the EC50 [3] was 132 nM. The “EC50 PPARα” value [4] was “ia”.

In the case of `Cc1cc(SC(Cc2c(F)cccc2Cl)c2sc(-c3ccc(C(F)(F)F)cc3)nc2C)ccc1OCC(=O)O` (stereo not shown) [Example 75, 2-[4-[2-(2-chloro-6-fluorophenyl)-1-[2-[4-(trifluoromethyl)phenyl]-4-methylthiazol-5-yl]ethylthio]-2-methylphenoxy]acetic acid], the “EC50 PPARγ” value [1] is reported as “ia”, the CC50 at 24 h [2] is reported as > 100000 nM and the EC50 [3] is reported as 2.1 nM. For the same molecule, the “EC50 PPARα” value [4] was “ia”.

In the case of `Cc1cc(SC(Cc2c(F)c(F)c(F)c(F)c2F)c2sc(-c3ccc(C(F)(F)F)cc3)nc2C)ccc1OCC(=O)O` (stereo not shown) [Example 80, 2-[4-[1-[2-[4-(trifluoromethyl)phenyl]-4-methylthiazol-5-yl]-2-(perfluorophenyl)ethylthio]-2-methylphenoxy]acetic acid], the CC50 at 24 h [2] is reported as > 100000 nM, the EC50 [3] is reported as 46.4 nM and the “EC50 PPARα” value [4] is reported as “ia”.

In the case of `Cc1cc(SC(Cc2ccc(Br)cc2)c2sc(-c3ccc(C(F)(F)F)cc3)nc2C)ccc1OCC(=O)O` (stereo not shown) [Example 81, 2-[4-[2-(4-bromophenyl)-1-[2-[4-(trifluoromethyl)phenyl]-4-methylthiazol-5-yl]ethylthio]-2-methylphenoxy]acetic acid], the “EC50 PPARγ” value [1] is reported as “ia”, the CC50 at 24 h [2] is reported as 92000 nM and the EC50 [3] is reported as 11.5 nM.
